Reference: patent publication US8912146B2, “Derivatives of APF and methods of use” (University of Maryland, Baltimore, priority 2008, dated 2014)

System: tight junction proteins in IC/PBS cells
Test: Immunofluorescence confocal microscopy of tight junction proteins in IC/PBS cells
Format: cell-based, human
Conditions: IC/PBS cell explants, 9 days
Procedure: For immunofluorescence, cells were fixed using ethanol/acetone (1:1) for 15 minutes at room temperature, washed 3 times with PBS and incubated with fluorescein isothiocyanate (FITC) labeled mouse monoclonal anti-ZO-1 (5 μg/ml); or unlabeled mouse monoclonal anti-occludin (5 μg/ml) or anti-claudin 4 (3 μg/ml); or unlabeled rabbit polyclonal anti-claudin 1 (3 μg/ml), anti-claudin 8 (8 μg/ml), or anti-claudin 12 (5 μg/ml from Zymed, South San Francisco, Calif.) diluted in PBS for 2 hours at 37 C. Cells incubated with unlabeled mouse monoclonal primary antibodies were then washed 3 times with PBS and further incubated with FITC-labeled secondary goat anti-mouse IgG antibody (Zymed) diluted in PBS, while cells incubated with unlabeled rabbit polyclonal primary antibodies were washed and further incubated for 2 hours at 37 C with goat anti-rabbit IgG (Zymed) diluted in PBS. Following an additional 5 washes with PBS, the cells were examined using an LSM510 confocal laser scanning microscope (Carl Zeiss, Oberkochen, Germany). Negative controls for the method included cells incubated without primary and secondary antibodies as well as cells incubated with secondary antibody alone.

## CC(=O)NC1C(O[C@@H]2OC(CO)[C@H](O)C(O)C2O)[C@@H](O)C(CO)O[C@@H]1OC(C)[C@H](N)C(=O)NC(C(=O)N1CCCC1C(=O)NC(C)C(=O)N[C@@H](C)C(=O)NC(C(=O)N[C@H](C(=O)NC(C(=O)N[C@@H](C)C(=O)O)C(C)C)C(C)C)C(C)C)C(C)C (stereo in doubt) [Derivative 8, GalGalNAc-TV(D-proline)AAVVVA]
  expression of tight junction proteins by immunofluorescence confocal microscopy: increased
